Source: PubChem BioAssay AID2286 (Southern Research Specialized Biocontainment Screening …, 2010)
The source made the active and inactive calls.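 How the source made its calls: active means minimum cell viability of 80% or lower across the dose range, counted as toxic; inactive means minimum cell viability above 80%.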

Assays:
[1] = system: MAGI-CCR5 cells viability, CellTiter-Glo ATP luminescence; test: MAGI-CCR5 and HeLa-R5-16 cytotoxicity, dose response, cytotoxicity control for HIV-1 fusion inhibitor project, cell-based, MAGI and MAGI-HeLa co-culture (AID 2286);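 further: cells exposed to compound for at least 64 h before ATP readout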;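 on minimum viability: 100% = median of DMSO vehicle wells with no ATP signal meaning 0%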;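 on viability: 100% = median of DMSO vehicle wells with no ATP signal meaning 0%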
[2] = as above; conditions: MAGI-CCR5 cells viability, CellTiter-Glo ATP luminescence; for minimum viability: measured here: MAGI minimum viability across doses
[3] = measured here: MAGI + HeLa-R5-16 co-culture viability
[4] = MAGI-HeLa co-culture viability, at 50 µM, stronger effect = lower value
[5] = at 12.5 µM, stronger effect = lower value

| Compound | CC50 [1] [µM] | CC50 [1, 3] [µM] | viability [2, 4] [%] | minimum viability ([2]; at 50 µM, stronger effect = lower value) [%] | minimum viability ([2]; at 25 µM, stronger effect = lower value) [%] | viability ([2]; at 50 µM (top of the series)) | minimum viability [2, 5] [%] | minimum viability ([2]; at 3.13 µM, stronger effect = lower value) [%] |
| --- | --- | --- | --- | --- | --- | --- | --- | --- |
| Cc1ccc(C)c(S(=O)(=O)/N=C2\C=C(NS(=O)(=O)c3ccccc3)C(=O)c3ccccc32)c1 | 43.1 | > 50 | 52.8 | 40.6 |  |  |  |  |
| COc1cc([N+](=O)[O-])cc(/C=C2/SC(=S)N(Cc3ccccc3)C2=O)c1O | 8.44 | 29.2 | 16.4 |  | 5.81 |  |  |  |
| O=C(O)CCn1cc(/C=C/C(=O)c2ccc(Cl)cc2)c(-c2ccc(Br)cc2)n1 | 30.7 | 45.5 | 36.4 | 11.5 |  |  |  |  |
| Oc1c(Cl)cc(Cl)c(Cl)c1Cc1c(O)c(Cl)cc(Cl)c1Cl | 1.96 | 7.05 | 23 | 15.7 |  |  |  |  |
| O=C(O)c1ccccc1NC(=O)c1ccccc1Nc1ccccc1 | 42.7 | > 50 | 58.2 | 47.6 |  |  |  |  |
| O=S(=O)(Nc1nc(-c2sccc2Cl)cs1)c1cc(Cl)ccc1Cl |  | > 50 | 70.8 | 47.7 |  |  |  |  |
| CCc1ccc(S(=O)(=O)/N=C2\C=C(NS(=O)(=O)c3ccccc3)C(=O)c3ccccc32)cc1 |  | > 50 | 80 | 74.4 |  |  |  |  |
| CCOc1cc(/C=N/N=C2/NC(=O)C(CC(=O)O)S2)ccc1OCc1ccc(Cl)cc1 (stereo not given) |  | > 50 | 75.2 |  |  | 101% (inactive) | 85.4 |  |
| COc1cc(/C=C2\C(=N)N3N=C(S(C)(=O)=O)SC3=NC2=O)ccc1OCCOc1ccccc1C |  | 10 | 15 | 51.5 |  |  |  |  |
| Cc1ccc(-c2nc(SCC(=O)Nc3ccccc3OC(F)F)c3c(C)c(C(=O)O)sc3n2)cc1 | 36.4 | > 50 | 58 | 36.8 |  |  |  |  |
| N#C/C(=C\c1ccc(O)c([N+](=O)[O-])c1)c1nc2ccccc2s1 | 11.7 | 43.8 | 41.9 | 21.9 |  |  |  |  |
| COc1ccc(S(=O)(=O)Nc2ccccc2C(=O)Nc2nc(-c3ccc(F)cc3)cs2)cc1OC | 6.51 | 14.8 | 27.5 | 18.4 |  |  |  |  |
| O=C(O)c1cccc(NC(=S)N/N=C/c2ccccc2OCc2cccc(Br)c2)c1 | 22.3 | 23.9 | 28.4 | 9.27 |  |  |  |  |
| Cc1nn(CCc2nn[nH]n2)c2nc(-c3ccc(C4CCCCC4)cc3)cc(C(F)(F)F)c12 | 36.3 | > 50 | 66.9 | 42.9 |  |  |  |  |
| O=C(O)CCn1cc(/C=C/C(=O)c2ccc(Cl)cc2)c(-c2cccc(Br)c2)n1 | 43.1 |  | 87 | 40.5 |  |  |  |  |
| O=C(NN1C(=O)/C(=C/c2ccc(O)c([N+](=O)[O-])c2)SC1=S)c1ccccc1Cl |  | > 50 | 76.4 | 67.5 |  |  |  |  |
| O=C(O)CN1C(=O)/C(=C\c2cc(Br)ccc2OCc2ccc([N+](=O)[O-])cc2)SC1=S |  | 19.9 | 24.7 | 69.8 |  |  |  |  |
| Cc1cccc(C)c1-n1cccc1/C=C1\SC(=S)N(c2cccc(C(=O)O)c2)C1=O |  | > 50 | 67.8 | 62.3 |  |  |  |  |
| COCCN1C(=O)/C(=C/c2ccc(OCc3ccc(C(=O)O)cc3)c(OC)c2)SC1=Nc1ccccc1 | 33.8 | 35.4 | 44.3 | 41.3 |  |  |  |  |
| O=C(Nc1cc(S(=O)(=O)N2CCCCC2)ccc1Cl)c1ccccc1NS(=O)(=O)c1ccc(F)cc1 | 2.49 | 7.38 | 24.8 |  |  |  | 19.1 |  |
| COc1cccc(OCCOc2ccc(/C=C3\C(=N)N4N=C(S(C)(=O)=O)SC4=NC3=O)cc2OC)c1 |  | 35.8 | 38 |  |  | 97.2% (inactive) |  | 91.2 |
| O=S(=O)(Nc1nc2ccccc2nc1Nc1cccc(S(=O)(=O)N2CCCCC2)c1)c1ccccc1 | 9.47 | 18.8 | 23.4 | 21.9 |  |  |  |  |
| CCc1oc2ccccc2c1C(=O)c1cc(Br)c(O)c(Br)c1 | 43.5 | > 50 | 52.7 | 38.8 |  |  |  |  |
